# Test results taken from PMC11555526, “Development of 2-Aminoadenine-Based Proteolysis-Targeting Chimeras (PROTACs) as Novel Potent Degraders of Monopolar Spindle 1 and Aurora Kinases” (ACS Pharmacology & Translational Science, 2024).
# Where “and” joins values, the source holds several entries; their conditions need not be identical. Equal entries are not always repeated. Where two headings read alike, the source gives them in different places.
# Columns and labels:
# [1] = target: T1, AURKB (Homo sapiens, UniProt Q96GD4); test: Immunoblot of AURKB in naive MV4-11 cells; assay type: cell-based; settings: 6 h, 0.1 µM
# T1 construct: endogenous in cells; host or cells: naive MV4-11
# T1 sequence (Q96GD4 whole entry): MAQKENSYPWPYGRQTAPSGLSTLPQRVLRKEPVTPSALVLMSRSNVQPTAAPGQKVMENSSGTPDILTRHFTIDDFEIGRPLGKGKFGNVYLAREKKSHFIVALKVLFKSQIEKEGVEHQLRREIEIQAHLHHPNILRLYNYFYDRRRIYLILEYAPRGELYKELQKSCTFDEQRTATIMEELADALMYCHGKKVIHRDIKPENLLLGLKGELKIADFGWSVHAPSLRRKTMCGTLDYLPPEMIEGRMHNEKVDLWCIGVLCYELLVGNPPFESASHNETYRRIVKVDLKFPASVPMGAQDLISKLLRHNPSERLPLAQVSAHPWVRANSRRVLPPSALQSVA
# Method: The cells were treated with compounds or vehicle for indicated time points and lysed in RIPA lysis buffer (50 mM HEPES pH 7.9, 140 mM NaCl, 1 mM EDTA, 1% Triton X-100, 0.1% SDS, 0.1% sodium deoxycholate) containing protease and phosphatase inhibitors (Sigma) for 20 min at 4 °C. Cell lysates were cleared by centrifugation, and protein concentration was determined with bicinchoninic acid assay. Equal amounts of protein per sample were separated by Bis-Tris-PAGE and transferred to PVDF membranes (Millipore). The membranes were blocked with 5% (w/v) nonfat dry milk in TBS-T [20 mM Tris–HCl, pH 7.5, 150 mM NaCl, 0.1% (v/v) Tween-20] for 1 h at room temperature and incubated with primary antibody at 4 °C overnight. Visualization was carried out using horseradish peroxidase (HRP)-labeled secondary antibodies and detected using a chemiluminescent HRP substrate (Millipore) in LAS3000 or LAS4000 mini (Fujifilm). Vinculin, GAPDH, or B-actin were used as a loading control. The loading control was probed along with the target antibody by cutting the membrane. For targets with similar molecular weights, the samples were run in duplicate and probed with their respective loading controls, although only one control was shown in the figure for all targets. The signal was quantified using ImageJ or Image Studio Lite against the corresponding loading controls. Antibodies used in this study were as follows: Aurora A/AIK (Cell Signaling Technology, 3092), Aurora B (Bethyl Laboratories, A300–431A), TTK (Santa Cruz Biotechnology, sc-56968), GAPDH (Cell Signaling Technology, 2118), B-Actin (Sigma, A5441), and Vinculin (Sigma, V9131).
# α GAPDH α Vinculin α B-Actin
# Figure S2: Cellular degradation studies of SF1-based compounds. […]
# Immunoblots of TTK and AURKB. Naive MV4-11 cells were treated with indicated concentration of 44 or 47 G)
# (E), 18 (F), and 14 or 20 (G) for 6 h and compared with vehicle treated cells. […]
# All HiBiT data are represented as a mean ±s.d. from n=2 replicates. […]
# [2] = target: T2, AURKB (MV4-11^AURKB-HiBiT cells) (Homo sapiens, UniProt Q96GD4); test: HiBiT assay, AURKB degradation; assay type: cell-based; design: key to Dmax (maximal degradation) AURKB: compounds with degradation less than 15% reported as “inactive”; settings: 6 h treatment; for DC50: read-out: DC50 (half-maximal degradation concentration) AURKB
# T2 construct: expressed in transfected cells; host or cells: MV4-11, lentiviral transduction (pRRL-PGK vector)
# T2 sequence (Q96GD4 1-345 isoform Q96GD4-5): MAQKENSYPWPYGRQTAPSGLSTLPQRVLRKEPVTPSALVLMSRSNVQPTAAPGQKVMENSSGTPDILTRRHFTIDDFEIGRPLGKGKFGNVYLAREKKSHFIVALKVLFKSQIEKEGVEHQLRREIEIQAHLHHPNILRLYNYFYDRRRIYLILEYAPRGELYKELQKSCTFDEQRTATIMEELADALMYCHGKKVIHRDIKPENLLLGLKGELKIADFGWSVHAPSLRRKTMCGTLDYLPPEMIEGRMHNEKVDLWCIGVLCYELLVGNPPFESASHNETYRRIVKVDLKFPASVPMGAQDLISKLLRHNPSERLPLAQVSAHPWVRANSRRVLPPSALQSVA
# Method: (§1) The effects of the synthesized compounds on AURKA, AURKB, and TTK mitotic kinases were then assessed in cellular systems. For this, HiBiT cell lines were generated for all three mitotic kinases. A small 11 amino acid peptide fragment of luciferase (HiBiT) was fused to the coding sequence of the proteins and stably transduced in the MV4-11 cell line (MV4-11^AURKA-HiBiT, MV4-11^AURKB-HiBiT, and MV4-11^HiBiT-TTK).
# (§2) The stable cell lines MV4-11^AURKA-HiBiT, MV4-11^AURKB-HiBiT, and MV4-11^HiBiT-TTK cells were generated by lentiviral infection. Lentivirus was produced using the respective HiBiT vector, plasmids psPAX2, and pMD2.G in HEK293 cells. The virus supernatant was filtered and MV4-11 cells were doubly infected with the supernatant. The cells were selected after 48 h of infection until the control cells were dead to get the stable cell line.
# (§3) The cells stably expressing HiBiT-tagged protein were seeded into 96-well plates and treated with serial dilutions of compounds for the indicated time points. At the end point, the assay was performed using the Nano-Glo HiBiT Lytic Detection System (Promega) according to the manufacturer’s instruction. Luminescence was measured on a GloMax 96 Microplate Luminometer (Promega) or a Tecan Spark Multiplate reader (Tecan). DC50 was calculated using concentrations showing sigmoidal behavior with the dose–response (four parameters) equation in Prism (GraphPad).
# [3] = tested on: MV4-11 cells (naive); test: alamarBlue cell viability assay; assay type: cell-based, human
# Method: Finally, to study the effect of the compounds on cancer cell survival, MV4-11 cells were treated with various concentrations of the chimeras and the cell viability was assessed after 72 h. […] As opposed to the parent inhibitor MPS1-IN-3, its derivatives except 40 were not cytotoxic (Figure S7B, Table 5). […] In addition, most of the SF1-based derivatives affected the viability of MV4-11 cells in nanomolar concentrations (Table 5).
# For the alamarBlue cell viability assay, cells were seeded in 96-well plates and treated with indicated concentrations of the compounds or vehicle. A few hours before the experimental end point (72 h, unless otherwise stated), the cells were incubated with the alamarBlue reagent. Finally, fluorescence (excitation: 550 nm and emission: 600 nm) or absorbance (570 nm with reference at 600 nm) was measured on a Tecan Spark Multiplate reader (Tecan).
# [4] = target: T3, TTK (MV4-11^HiBiT-TTK cells) (Homo sapiens, UniProt P33981); test: HiBiT assay, TTK degradation; assay type: cell-based; design: key to Dmax (maximal degradation) TTK: compounds with degradation less than 15% reported as “inactive”; settings: for DC50 (half-maximal degradation concentration) TTK / Dmax (maximal degradation) TTK / DC50: 6 h treatment, MV4-11^HiBiT-TTK cells; for DC50: read-out: DC50 (half-maximal degradation concentration) TTK
# T3 construct: expressed in transfected cells; host or cells: MV4-11, lentiviral transduction (pRRL-PGK-HiBiT entry vector)
# T3 sequence (P33981 1-857): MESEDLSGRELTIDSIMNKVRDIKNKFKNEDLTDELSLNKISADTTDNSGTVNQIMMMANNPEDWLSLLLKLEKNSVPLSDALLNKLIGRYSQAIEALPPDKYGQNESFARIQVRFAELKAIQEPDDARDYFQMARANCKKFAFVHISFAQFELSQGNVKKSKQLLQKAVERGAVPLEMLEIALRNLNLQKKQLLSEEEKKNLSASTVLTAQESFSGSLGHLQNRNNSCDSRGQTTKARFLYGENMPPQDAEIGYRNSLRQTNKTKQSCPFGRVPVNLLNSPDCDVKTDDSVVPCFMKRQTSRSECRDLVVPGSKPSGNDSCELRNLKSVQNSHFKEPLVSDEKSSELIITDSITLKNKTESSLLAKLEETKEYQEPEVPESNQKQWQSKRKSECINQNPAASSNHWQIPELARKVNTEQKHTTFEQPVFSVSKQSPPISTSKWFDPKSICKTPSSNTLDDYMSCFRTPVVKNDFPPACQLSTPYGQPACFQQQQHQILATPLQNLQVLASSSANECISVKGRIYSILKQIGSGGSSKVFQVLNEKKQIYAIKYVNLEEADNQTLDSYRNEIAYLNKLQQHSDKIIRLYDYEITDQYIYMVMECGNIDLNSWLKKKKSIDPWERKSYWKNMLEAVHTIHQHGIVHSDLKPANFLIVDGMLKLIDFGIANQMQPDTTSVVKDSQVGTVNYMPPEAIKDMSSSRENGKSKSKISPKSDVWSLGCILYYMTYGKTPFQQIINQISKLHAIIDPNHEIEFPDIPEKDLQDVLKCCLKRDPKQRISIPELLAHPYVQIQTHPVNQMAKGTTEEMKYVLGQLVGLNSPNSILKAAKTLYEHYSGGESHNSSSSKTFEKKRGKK
# Method: as §1, §2, §3
# [5] = target: T4, AURKA (MV4-11^AURKA-HiBiT cells) (Homo sapiens, UniProt O14965); test: HiBiT assay, AURKA degradation; assay type: cell-based; design: key to Dmax (maximal degradation) AURKA: compounds with degradation less than 15% reported as “inactive”; settings: 6 h treatment, MV4-11^AURKA-HiBiT cells; for DC50: read-out: DC50 (half-maximal degradation concentration) AURKA
# T4 construct: expressed in transfected cells; host or cells: MV4-11, lentiviral transduction
# T4 sequence (O14965 1-403): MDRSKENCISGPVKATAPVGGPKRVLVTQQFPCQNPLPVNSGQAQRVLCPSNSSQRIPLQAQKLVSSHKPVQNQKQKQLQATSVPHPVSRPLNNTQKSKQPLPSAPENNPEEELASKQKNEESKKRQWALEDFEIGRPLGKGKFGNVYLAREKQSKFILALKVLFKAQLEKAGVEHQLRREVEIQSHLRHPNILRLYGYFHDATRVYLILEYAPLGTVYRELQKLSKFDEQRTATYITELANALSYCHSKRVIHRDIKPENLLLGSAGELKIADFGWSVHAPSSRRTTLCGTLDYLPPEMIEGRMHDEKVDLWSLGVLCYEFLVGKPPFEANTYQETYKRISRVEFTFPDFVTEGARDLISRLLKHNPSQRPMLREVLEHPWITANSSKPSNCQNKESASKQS
# Method: as §1, §2, §3
# [6] = tested on: human TTK; design: method as in PMID 23940287, PMID 32338514, PMID 27905678, PMID 27437075, PMID 30232224; settings: literature values, introduction and Figure 1; cited from earlier work
# [7] = 72 h treatment, MV4-11 cells (naive)
# [8] = 72 h, MV4-11 cells, read-out: EC50 cytotoxicity
# [9] = 72 h treatment, MV4-11 cells (naive), read-out: EC50 (concentration that decreases cell viability by 50%)
Structure (SMILES),"relative AURKB level (immunoblot quantification, vehicle = 1.00) [1]",DC50 (half-maximal degradation concentration) AURKB [2],Dmax (maximal degradation) AURKB [2],"EC50 (concentration that decreases cell viability by 50%) [3, 7]",DC50 (half-maximal degradation concentration) TTK [4],Dmax (maximal degradation) TTK [4],DC50 (half-maximal degradation concentration) AURKA [5],Dmax (maximal degradation) AURKA [5],IC50 [6],DC50 [2],"EC50 [3, 8]","EC50 [3, 9]",DC50 [4],"fold lower activity (DC50) against TTK in comparison to degrader 19 ([4]; HiBiT, 6 h)",DC50 [5]
Cc1ncsc1-c1ccc(CNC(=O)[C@@H]2C[C@@H](O)CN2C(=O)[C@@H](NC(=O)CCC(=O)NCC(=O)N2CCN(c3ccc(Nc4nc(Nc5ccccc5S(=O)(=O)C(C)C)c5nc[nH]c5n4)cc3)CC2)C(C)(C)C)cc1 [Compound 47],1.00,– (compounds with degradation less than 25% were not calculated and reported as “–”),20.20%,— (compounds with decrease of cell viability less than 50% were not calculated and reported as “—”),– (compounds with degradation less than 25% were not calculated and reported as “–”),inactive,– (compounds with degradation less than 25% were not calculated and reported as “–”),21.70%,,,,,,,
COc1cc(S(C)(=O)=O)ccc1Nc1nc2ccc(-c3ccc(NC(=O)[C@H](C)c4ccc(F)cc4)cc3)cn2n1 [BAY1161909],,,,,,,,,1 nM,,,,,,
COc1cc(N2CCC(OCC(=O)NCCNC(=O)CCCC(=O)Nc3cccc4c3C(=O)N(C3CCC(=O)NC3=O)C4=O)CC2)ccc1Nc1nc(Nc2ccccc2S(=O)(=O)C(C)C)c2nc[nH]c2n1 (stereo not drawn) [Compound 41],,– (compounds with degradation less than 25% were not calculated and reported as “–”),inactive,— (compounds with decrease of cell viability less than 50% were not calculated and reported as “—”),– (compounds with degradation less than 25% were not calculated and reported as “–”),inactive,– (compounds with degradation less than 25% were not calculated and reported as “–”),inactive,,,,,,,
CN1C(=O)CCC(N2C(=O)c3cccc(NC(=O)CCCC(=O)NCC(=O)N4CCN(c5ccc(Nc6nc(NC7CCCCC7)c7nc[nH]c7n6)cc5)CC4)c3C2=O)C1=O (stereo not drawn) [Compound 23],,,48.30%,,,32.55%,,55.25%,,363 nM,700 nM,697 nM,600 nM,34 fold,299 nM
O=C1CCC(N2C(=O)c3cccc(NC(=O)COCCOCC(=O)N4CCN(c5ccc(Nc6nc(NC7CCCCC7)c7nc[nH]c7n6)cc5)CC4)c3C2=O)C(=O)N1 (stereo not drawn) [Compound 17],,,36.10%,,,39.40%,,68.90%,,598 nM,,506 nM,66 nM,,239 nM
O=C(CCCC(=O)Nc1cccc2c1C(=O)N(C1CCC(=O)NC1=O)C2=O)NCC(=O)N1CCN(c2ccc(Nc3nc(NC4CCCCC4)c4nc[nH]c4n3)cc2)CC1 (stereo not drawn) [Compound 19],,,43.60%,,,67% and 66.50%,,78.80%,,570 nM,1400 nM,1380 nM,18 nM and 17.7 nM,,109 nM
Cc1ncsc1-c1ccc(CNC(=O)[C@@H]2C[C@@H](O)CN2C(=O)[C@@H](NC(=O)CCCC(=O)N2CCN(c3ccc(Nc4nc(NC5CCCCC5)c5nc[nH]c5n4)cc3)CC2)C(C)(C)C)cc1 [Compound 43],,,33.80%,,,32.70%,,55% and 55.60%,,2280 nM,,584 nM,1960 nM,,684 nM
CC(C)S(=O)(=O)c1ccccc1Nc1nc(Nc2ccc(N3CCN(CCCCC(=O)Nc4cccc5c4C(=O)N(C4CCC(=O)NC4=O)C5=O)CC3)cc2)nc2[nH]cnc12 (stereo not drawn) [Compound 28],,,45.95%,,,59.05%,,69.70%,,273 nM,,126 nM,84.5 nM,,4.85 nM
